Reference: patent US10751335B2 (priority 2016, dated 2020)

Columns and labels:
human MOR = human MOR (Homo sapiens (Human), UniProt P35372)
mice = conditions: mouse, in vivo

## COc1ccsc1CNCC[C@@]1(c2ccccn2)CCOC2(CCCC2)C1 [TRV-130]
Human MOR
  G/βarr2 bias factor: 3.0

## CN1CC[C@]23c4c5ccc(O)c4O[C@H]2[C@@H](O)C=C[C@H]3[C@H]1C5 [morphine]
mice
  constipation following acute administration: induced constipation
